Patent US11040954B1, “CXCR3 receptor agonists” (RECEPTOS LLC, priority 2016, dated 2021)
Read-outs that look alike come from different tables or passages of the source.

How the values were obtained:
[1] = Mouse pharmacokinetics after oral gavage, plasma drug concentration by LC-MS/MS (C57BL/6); assay type: in vivo, C57bl/6 mice; settings: for Cmax / AUC(0-t): mouse, plasma; for AUC(0-t): read-out: AUC0-24
Procedure: Compounds were formulated in 5% DMSO/5% Tween20 in H2O, sonicated, vortexed, and put on stir plate overnight at a dose volume of 10 mL/kg. Balb/C (Jackson laboratories) or C57bl/6 (Taconic Biosciences) mice (8-9 weeks old) were acclimated to the colony for 3 days prior to dosing. Water and food were provided ab libitum. Compounds were administered by oral gavage. Groups of six animals received 3 to 4 bleeds per day with one terminal bleed. The time points were 30 min, 1 h, 2 h, 4 h, 6 h, 8 h, 24 h. Plasma was collected via centrifugation and analyzed for drug concentrations.
Preparation of Study Samples and Standards for Analysis by LC-MS/MS
50 μl of plasma was aliquoted into a 96 well deep-well polypropylene plate (2 mL) to which 5 μL of DMSO was added. For standards, 5 μl of test compound in DMSO at […] the standard concentration was added to 50 μl of blank matrix in a 96 well deep-well polypropylene plate. For example, for a 300 nM standard, the 10× DMSO concentration was 3 μM. Study samples that require dilution are diluted with the appropriate blank matrix. For example, for a 10× dilution, 5 μL of study sample is added to 45 μl of blank matrix. Protein was precipitated from study samples and standards with the addition of 150 μl of acetonitrile. After a clean plate map was placed firmly over the top of the 96-well plate, a bench top shaker was used for 1 min to ensure complete precipitation of protein. The precipitated protein was pelleted by centrifuging for 3,000 rpm for 10 min at 20° C. and then the clear supernatant was transferred to a clean 96-well plate and spun again under the same conditions in order to pellet any solid material that may have been transferred.
Analysis of Study Samples and Standards with LCMS with MRM Detection
An Agilent 1200 HPLC with binary pump and a Leap CTC with fast wash autosampler were used to introduce samples to the mass spectrometer.
The column used was a Phenomenex Luna C8 30×2 mm 5 μm with a security guard. Mass detection was performed by an Applied Biosystems 4000 Qtrap in MRM mode and ionization was achieved by positive electrospray with a source temperature of 500° C. The ion transitions, […] potential and collision energies were dependent on the specific analyte.
Prepared samples were usually analyzed in reverse chronological order with bracketing standard curves. Typically at least 6 standards were used for quantification with a percent accuracy of +/−15% for all standards except at the LLOQ where a percent accuracy of +/−20% was allowed. The concentration time profile was fit using a one compartment model for the applicable mode of dosing using Phoenix WinNonLin 6.4.

[2] = target: T1, CXCR3 (Homo sapiens, UniProt P49682); test: CXCR3 cAMP agonist assay (cAMP Hunter CHOK1 CXCR3 Gi cell line, forskolin-stimulated, HitHunter cAMP detection); assay type: cell-based; settings: cAMP Hunter CHOK1 CXCR3 Gi cells, 20 μM forskolin, 30 minutes; read-out: Activity (CXCR3 cAMP agonist assay compound EC50)
T1 construct: host or cells: CHO-K1 (cAMP Hunter CHOK1 CXCR3 Gi cell line)
T1 sequence (P49682 1-368): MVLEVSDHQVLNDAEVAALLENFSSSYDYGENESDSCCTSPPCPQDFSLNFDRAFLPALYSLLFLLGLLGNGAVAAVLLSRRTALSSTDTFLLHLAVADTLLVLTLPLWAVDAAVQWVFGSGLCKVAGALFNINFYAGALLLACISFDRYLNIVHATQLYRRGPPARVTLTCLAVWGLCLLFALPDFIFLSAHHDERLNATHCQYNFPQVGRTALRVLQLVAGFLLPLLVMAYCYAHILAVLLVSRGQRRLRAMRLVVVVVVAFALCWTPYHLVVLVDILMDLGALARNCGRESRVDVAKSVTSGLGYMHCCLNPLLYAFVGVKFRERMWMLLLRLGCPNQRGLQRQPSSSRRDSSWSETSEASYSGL
How it was run: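 Agonist activity was measured as suppression of forskolin (20 μM)-induced cAMP, read by luminescent enzyme-fragment complementation with a cAMP standard curve and CXCL11 defining full efficacy. Assay used 50,000 CXCR3 Gi CHOK1 cells/well in pH 7.4 HEPES-buffered HBSS with 0.1% BSA, compound 0-10 μM over 12 points, 30 min incubation.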

SMILES | apparent oral clearance (CL/F) ([1]; C57BL/6, 60 mg/kg, female mice) [L/h/kg] | Cmax ([1]; C57BL/6, 60 mg/kg, female mice) [µM] | AUC(0-t) ([1]; C57BL/6, 60 mg/kg, female mice) [µM·h] | EC50 [2] [µM] | Cmax ([1]; C57BL/6, 10 mg/kg, male mice) [µM] | AUC(0-t) ([1]; C57BL/6, 10 mg/kg, male mice) [µM·h] | apparent oral clearance (CL/F) ([1]; C57BL/6, 60 mg/kg, male mice) [L/h/kg] | Cmax ([1]; C57BL/6, 60 mg/kg, male mice) [µM] | AUC(0-t) ([1]; C57BL/6, 60 mg/kg, male mice) [µM·h]
NCC[C@H](NC(=O)[C@@H]1Cc2ccccc2CN1C(=O)CCC(=O)c1ccccc1)C(=O)Nc1ccc2c(c1)CCC2 [Compound 2-47] | 3.96 | 7.6 | 27.5 | < 0.05 | – | – | – | – | –
O=C(CCC(=O)N1Cc2ccccc2C[C@H]1C(=O)NC1(C(=O)Nc2ccc(Cl)c(Cl)c2F)CCNCC1)c1ccccc1 [Compound 4-14] | 0.96 | 5.2 | 99 | < 0.05 | – | – | – | – | –
CC1(C)CCCCN1C(=O)CCC(=O)N1Cc2cc(F)ccc2C[C@H]1C(=O)N[C@@H](CCN)C(=O)Nc1ccc(Cl)c(Cl)c1F [Compound 15-62] | 66 | 0.6 | 1.4 | < 0.05 | – | – | – | – | –
Cc1ccc(C(F)(F)F)c(NC(=O)[C@H](CCN)NC(=O)[C@@H]2Cc3ccccc3CN2C(=O)CCC(=O)c2ccccc2)c1 [Compound 14-17] | 1.32 | 22 | 78 | < 0.05 | – | – | – | – | –
Cc1cc(NC(=O)[C@H](CC23CC(N)(C2)C3)NC(=O)[C@@H]2Cc3ccccc3CN2C(=O)CCC(=O)c2ccccc2)ccc1Cl [Compound 22-1, (S)—N—((S)-3-(3-aminobicyclo[1.1.1]pentan-1-yl)-1-((4-chloro-3-methylphenyl)amino)-1-oxopropan-2-yl)-2-(4-oxo-4-phenylbutanoyl)-1,2,3,4-tetrahydroisoquinoline-3-carboxamide] | 2.04 | 7.3 | 48 | < 0.05 | – | – | – | – | –
Cc1cc(NC(=O)[C@H](CCN)NC(=O)[C@@H]2Cc3ccccc3CN2C(=O)CCC(=O)c2ccccc2)c(C#N)cc1Cl [Compound 14-18] | 13.3 | 3.2 | 7.7 | < 0.05 | – | – | – | – | –
CCc1cc(NC(=O)[C@H](CCN)NC(=O)[C@@H]2Cc3ccccc3CN2C(=O)CCC(=O)c2ccccc2)ccc1Cl [Compound 2-55] | 10.6 | 3 | 9.9 | < 0.05 | – | – | – | – | –
CC1(C)CCN(C(=O)CCC(=O)N2Cc3ccccc3C[C@H]2C(=O)N[C@@H](CCN)C(=O)Nc2ccc(Cl)c(Cl)c2F)C1 [Compound 15-2] | 20.8 | 1.8 | 4.6 | < 0.05 | – | – | – | – | –
NCC[C@H](NC(=O)[C@@H]1Cc2ccccc2CN1C(=O)CCC(=O)N1CCCC12CCC2)C(=O)Nc1ccc(Cl)c(Cl)c1F [Compound 12-152] | 11.4 | 2.8 | 8.3 | < 0.05 | – | – | – | – | –
Cc1cc(NC(=O)[C@H](CCCCN)NC(=O)[C@@H]2Cc3ccccc3CN2C(=O)CCC(=O)c2ccccc2)ccc1Cl [Compound 1-14] | – | – | – | < 0.05 | 0.006 | 0.011 | – | – | –
NCC[C@H](NC(=O)[C@@H]1Cc2ccccc2CN1C(=O)CCC(=O)N1CCCC2(CCC2)C1)C(=O)Nc1ccc2c(c1)CCC2 [Compound 10-8] | 25.9 | 1.5 | 3.9 | < 0.05 | – | – | – | – | –
COc1cc(Cl)c(Cl)cc1NC(=O)[C@H](CCN)NC(=O)[C@@H]1Cc2ccccc2CN1C(=O)CCC(=O)c1ccccc1 [Compound 2-23] | – | – | – | < 0.05 | – | – | 5.28 | 3.9 | 19
